Source: patent US9383644B2, “Sulfonic acid derivative compounds as photoacid generators in resist applications” (Heraeus Precious Metals North America Daychem LLC, priority 2014, dated 2016)

Experiments:
Assay type in all cases: physicochemical
[1] = Solubility of PAG in organic solvents (solvent added until completely dissolved); conditions: for Solubility (w/v %) Cyclohexanone / Solubility (w/v %) PGMEA / Solubility (w/v %) GBL: 20° C.; for Solubility (w/v %) PGMEA / Solubility (w/v %) in PGMEA: Propylene glycol monomethyl ether acetate; for Solubility (w/v %) PGMEA: Table 8; for Solubility (w/v %) in PGMEA: Table 7; for Solubility (w/v %) GBL: γ-Butyrolactone; for Solubility in organic solvents (in words): PGMEA, cyclohexanone, GBL
Text: Solubility is an important factor in the evaluation of a PAG. High solubility not only makes a PAG purified readily but also enables a PAG to be used for a wide range of concentrations in photoresists and in varied solvent systems. To test the solubility of a PAG, a solvent is slowly added until the PAG is completely dissolved and no turbidity is observed in the clear solution. Table 8 lists the solubility (w/v %) of some representative N-hydroxynaphthalimide sulfonate derivatives versus NIT in various organic solvents at 20° C. […] All compounds except for S-6 and O-12 show much higher solubility than the commercial benchmark (NIT).

[2] = Photoreactivity: photolysis of PAGs in acetonitrile at 365 nm, photoreaction constant from UV-Vis absorbance; conditions: for Relative Photoreactivity (normalized photoreaction constant) at 365 nm: acetonitrile, air, room temperature, 3×10^−5 M, NIT normalized to one; for Solubility x relative Photoreactivity: product of solubility in PGMEA and relative photoreactivity at 365 nm
Text: A photoresist composition typically comprises PAG, polymers, additives and solvents. The performance of a photoresist composition is mainly dependent on the properties of the PAG and polymer components. To formulate a high-performance photoresist composition, more photosensitive PAGs are typically selected. The photosensitivity of a PAG is typically directly related to the strength of the generated acid and the photoreactivity of the PAG. For a series of PAGs producing the same latent acid, their photosensitivity is related only to their photoreactivity. Thus evaluating the photosensitivity of a PAG can be achieved by studying its photoreactivity. The higher photoreactivity, the higher photosensitivity. The photoreactivity can be investigated by photolysis of a PAG in its dilute solution under low exposure intensity (to avoid side reactions which don't generate the desired acid). The change in the concentration of a PAG upon irradiation can be determined by measuring the absorbance of the PAG at the maximum absorption wavelength.
Photolysis of PAGs was carried out in acetonitrile in air at room temperature. The sodium salt of tetrabromophenol blue (TBPBNa), an acid indicator dye, which has a maximum absorption at 618 nm, was purchased from Aldrich (indicator grade) and used as received. Irradiation of the solution of the PAGs (3×10^−5 M) was performed using a Cole-Parmer UV 15 W bench lamp (EW-97605-50) at 365 nm. Light intensity was measured using an UV Power Puck II radiometer from EIT Inc. UV-Vis spectra were run on a Thermo Scientific Evolution 201 UV-visible spectrophotometer.
Photolysis of NIT, comparative compound A and B, S-3, and S-11 was examined in acetonitrile. The absorption band at 400 nm gradually decreases upon irradiation, indicating the progress of photoreaction with the increase of exposure dose of energy. Assuming the photoreaction is first-order, plot of natural log of changes in absorbance with exposure dose of energy gives the photoreaction constant of S-3 (i.e., the slope of the linear trendline) (FIG. 3). The photoreaction constants of other compounds were similarly determined under the same irradiation condition. Comparing the constants of A, B, S-3, and S-11 with that of NIT normalized to one gives the relative photoreactivity (Table 7). […] The formation of acid upon irradiation was confirmed by observing the spectral changes of the acid indicator, TBPBNa at 618 nm.

[3] = UV absorbance of PAG compounds (FIG. 1); conditions: for Absorbance at i-, h-, and g-lines of a mercury lamp (in words): versus NIT
Text: FIG. 1 is a graph illustrating the UV absorbance of certain PAG compounds of the invention versus the UV absorbance of certain prior art PAG compounds;
Referring to FIG. 1, the PAG compounds of the invention have excellent solubility in organic solvents and strong absorption at i-, h-, and g-lines of a mercury lamp.

Row | SMILES | Solubility (w/v %) Cyclohexanone [1] | Solubility (w/v %) PGMEA [1] | Solubility (w/v %) in PGMEA [1] | Solubility (w/v %) GBL [1] | Relative Photoreactivity (normalized photoreaction constant) at 365 nm [2] | Solubility x relative Photoreactivity [2] | Solubility in organic solvents (in words) [1] | Strong absorption band [3] | Absorbance at i-, h-, and g-lines of a mercury lamp (in words) [3]
1 | O=C1c2cccc3c(C#Cc4ccccc4)ccc(c23)C(=O)N1OS(=O)(=O)C(F)(F)F [Comparative B, reference compound] | 3.5% w/v % | 1.0% w/v % | 1.0% w/v % | 1.1% w/v % | 2.5 | 2.5% | much lower | – | –
2 | O=C1c2cccc3c(Oc4ccccc4)ccc(c23)C(=O)N1OS(=O)(=O)C(F)(F)F [Compound O-12] | 9.0% w/v % | 2.0% w/v % | – | 1.6% w/v % | – | – | – | 364 nm | much larger than that of NIT
3 | CC(C)Sc1ccc2c3c(cccc13)C(=O)N(OS(=O)(=O)C(F)(F)F)C2=O [Compound S-3] | 16.6% w/v % | 7.2% w/v % | 7.2% w/v % | 8.1% w/v % | 13.3 | 95.8% | much higher solubility than comparative compound A | 400 nm | much larger than that of NIT
4 | COC(C)CCOC(=O)CCSc1ccc2c3c(cccc13)C(=O)N(OS(=O)(=O)C(F)(F)F)C2=O (stereo not shown) [Compound S-11] | 86.4% w/v % | 53.9% w/v % | 53.9% w/v % | 105.7% w/v % | 14.2 | 765.4% | extremely high solubility | – | –
5 | COC(C)CCOC(=O)CCSc1ccc2c3c(cccc13)C(=O)N(OS(=O)(=O)c1ccc(C)cc1)C2=O (stereo not shown) [Compound S-43] | 37.5% w/v % | 11.7% w/v % | – | 67.8% w/v % | – | – | extremely high solubility | – | –
6 | O=C1c2cccc3cccc(c23)C(=O)N1OS(=O)(=O)C(F)(F)F [NIT, N-Hydroxynaphthalimide triflate, reference compound] | 5.9% w/v % | 1.7% w/v % | 1.7% w/v % | 2.2% w/v % | 1.0 | 1.7% | – | – | –

The remaining lines, values ahead:

Row | Solubility (w/v %) Cyclohexanone [1] | Solubility (w/v %) PGMEA [1] | Solubility (w/v %) in PGMEA [1] | Solubility (w/v %) GBL [1] | Relative Photoreactivity (normalized photoreaction constant) at 365 nm [2] | Solubility x relative Photoreactivity [2] | Solubility in organic solvents (in words) [1] | Strong absorption band [3] | Absorbance at i-, h-, and g-lines of a mercury lamp (in words) [3] | SMILES
7 | 4.1% w/v % | 1.1% w/v % | 1.1% w/v % | 0.9% w/v % | 13.5 | 14.9% | – | – | – | CCCCSc1ccc2c3c(cccc13)C(=O)N(OS(=O)(=O)C(F)(F)F)C2=O [Comparative A, reference compound]
8 | 5.3% w/v % | 1.9% w/v % | – | 1.2% w/v % | – | – | – | 400 nm | much larger than that of NIT | CC(C)(C)c1ccc(Sc2ccc3c4c(cccc24)C(=O)N(OS(=O)(=O)C(F)(F)F)C3=O)cc1 [Compound S-6]
